Columns and labels:
[1] = tested on: CFTR-mediated and non CFTR-mediated HCO3^− secretion; experiment: Isc and pH stat HCO3^− secretion with/without lumen Cl^−, CFTR inhibitors or DIDS (FIGS. 5, 6)
Source text: FIG. 3. Experimental approach 1: The Ussing chamber pH-stat set up used to monitor and measure HCO3^- secretion by colonic mucosa. FIG. 4. Experimental Approach 2: Measurement of HCO3^- secretion by colonic mucosa in the presence of apical NPPB/Glibenclamide. FIGS. 5A-5F. Activation of CaSR by […] inhibits CFTR-mediated HCO3^- secretion (JHCO3) and ISC but stimulates non CFTR-mediated HCO3^- secretion (JHCO3) and Isc. Physiological approach assayed with, versus without, lumen Cl^-. FIGS. 6A-6F. Activation of CaSR by […] inhibits CFTR-mediated HCO3^- secretion (JHCO3) and ISC but stimulates CFTR-independent HCO3^- secretion (JHCO3) and Isc. Pharmacological approach assayed with, and without, CFTR transporter inhibitors or AE inhibitor DIDS.

[2] = tested on: cAMP-dependent HCO3^− secretion; experiment: Cyclic nucleotide (cAMP)-dependent HCO3^− secretion, lumen Cl^−/SCFA-free; set-up: species or system rat
Protocol: Stripped mucosal sheets were mounted into Ussing chambers (window area=0.3-0.5 cm^2, Physiologic Instruments, San Diego, Calif.). The mucosal side of tissue was bathed with an unbuffered HCO3^--free Cl^- Ringer solution (see Table 2 for detailed composition) circulated by a gas lift with 100% O2 while the serosal side was bathed with buffered Cl^- Ringer solution (pH 7.4) that contained 25 mM HCO3^- and gassed with 5% CO2/95% O2. Each side contained 3-5 ml of solution and the temperature of the solution was adjusted to and maintained at 37° C. by heated water-jacketed reservoirs. Experiments were performed under short-circuit conditions (Voltage-Current Clamp, VCC MC8; Physiologic Instruments, San Diego, Calif.) to maintain the transepithelial potentials at 0 mV, except for brief interruption at 20-second intervals for recording of open-circuit potential (VT, mV). Two types of approaches were used in the measurement of colonic HCO3^- secretion, namely, measurement of lumen pH or pH stat titration of net alkalinization by colonic mucosa. […] Radiometer Analytical, Villeurbanne, France). The amount of the acid delivered per unit time per surface area was used to quantitate HCO3^- secretion by the mucosa. Measurements were recorded continuously and mean values for consecutive 5 or 10 min periods were averaged. […] The short-circuit current (Isc) was measured in microamperes (μA) and converted into μEq/hr/cm^2. Tissue resistance (R, Ω cm^2) was calculated from Ohm's law. Colon segments were prepared and treated as in the secretagogue-induced HCO3^- secretion experiments except that they were bathed luminally with HCO3^--free Ringer solution that contained no isobutyrate and no Cl^-. Cyclic nucleotide-dependent HCO3^- secretion was calculated as […] (the difference between JHCO3 after minus JHCO3 before the addition of forskolin). When inhibitor was used, it was added at 30 min before […] or forskolin.

In the case of `COc1cccc([C@@H](C)NCCCc2ccccc2Cl)c1.Cl` [R568, 2-Chloro-N-[(1R)-1-(3-methoxyphenyl)ethyl]-benzenepropanamine hydrochloride], the “HCO3^− secretion (pH stat)” value ([1]; absence of lumen Cl^−) was “net inhibition”, the “phase I Isc stimulation induced by R568” value ([1]; absence of lumen Cl^−) was “abolished” and the “phase II Isc inhibition” value ([1]; absence of lumen Cl^−) was “remained unchanged or slightly reduced”. The “HCO3^− secretion (pH stat)” value ([1]; presence of lumen Cl^−) was “net stimulation”, the Isc response ([1]; presence of lumen Cl^−) was “two-phase response” and the “effect on FSK-induced HCO3^− secretion” value ([2]; 10 μM serosa after forskolin, lumen Cl^−/SCFA-free) was “almost completely reversed”. For the same compound, the “Isc response in the absence of serosal HCO3^−” value ([2]; no serosal HCO3^− (data not shown)) was “failed to stimulate or to inhibit” and the “effect on forskolin-stimulated Isc” value ([2]; subsequent addition after forskolin, lumen Cl^−-free) was “inhibited”.

From patent US20180153826A1, “MATERIALS AND METHODS FOR THE TREATMENT OF CYSTIC FIBROSIS” (UNIVERSITY OF FLORIDA RESEARCH FOUNDATION, INC., priority 2015, published 2018)
